Here are results for two compounds from US20150337056A1, “Method for Immediately Terminating Radical Polymerizations, Inhibitor Solution, and Use Thereof” (Allessa GmbH, priority 2013, published 2015).

SMILES strings stand for the structures. Some results are limits rather than exact numbers.

For data set [1] the following is noted: solutions in N-alkylpyrrolidones (N-methylpyrrolidone, N-ethylpyrrolidone); cited from earlier work.
A short description of data set [2]: Solubility of phenothiazine in conventional organic solvents. Type of data set: physicochemical. The text has this: Only in the N-methylpyrrolidone already mentioned and in the chemically and toxicologically related dimethylformamide could concentrated solutions of 30 percent by weight or more be prepared.
Tetrahydrofuran and acetone could also be identified as good solvents. Unfortunately these solvents have low boiling points and flashpoints which renders transport, storage and handling of the solutions more difficult.

Data set [3] in a line: Solubility and low-temperature stability of inhibitors in (poly)alkylene glycols.

In the case of `c1ccc2c(c1)Nc1ccccc1S2` [phenothiazine], the “low temperature down to which solutions are stable” value in data set [1] was −11 °C. The “concentrated solutions that could be prepared” value in data set [2] (in N-methylpyrrolidone and in dimethylformamide) is not below 30 percent by weight. The solubility in data set [2] (in methanol, ethanol, isopropanol, toluene, cyclohexane or n-hexane) is 2-3 percent by weight. In addition, the “solvent quality for phenothiazine” value in data set [2] (tetrahydrofuran and acetone) is on record as “good solvents”. For the same compound, in data set [3] (in (poly)alkylene glycols, between −20° C. and +20° C., FIG. 1), the “temperature dependence of solubility” value is listed as “virtually independent of the temperature”. Further, in data set [3] (in poly(alkylene) glycol(s)), the “solubility in poly(alkylene) glycol(s)” value is listed as “readily soluble” and the “temperature down to which stable solutions are formed” value was −25 °C.
Take `COc1ccc(O)cc1` [MEHQ, hydroquinone monomethyl ether]: the “low temperature down to which solutions are stable” value in data set [1] was −11 °C.
